The record followed here is patent publication US10640533B2, “Epoxyketone compounds for enzyme inhibition” (CENTRAX INTERNATIONAL, INC., priority 2014, dated 2020).

Structures are written as SMILES. pIC50: −log10 of the molar value. Converted amounts (≈) assume the structure as drawn. Read-outs that look alike come from different tables or passages of the source. Where only a bound is given, the exact number is not on record here.

Data set [1] concerns the target Constitutive 20S proteasome chymotrypsin-like (CT-L) activity (Homo sapiens (Human), UniProt P20618+P28074). Briefly: Constitutive 20S proteasome CT-L activity inhibition, fluorogenic substrate succinyl-Leu-Leu-Val-Tyr-AMC. The class given is biochemical. Particulars: for pIC50: form of 20S proteasome not stated, 'below about'; for IC50: purified human 20S proteasome, room temperature, one hour, read-out: Proteasome inhibition IC50 (nM) Constitutive 20S proteasome CT-L. Here is the method: (§1) Inhibition of the 20S proteasome can be determined by methods and assays known in the art, for example, as disclosed by Stein et al., Biochemistry (1996), 35, 3899-3908; by Lightcap et al., Clinical Chemistry, 2000, 46, 673-683; by Kisselev et al., Journal of Biological Chemistry. (2006), 281, 8582-8590 and in U.S. application Ser. No. 09/569,748. The chymotrypsin-like (CT-L), peptidylglutamyl peptide hydrolyzing (PGPH) and trypsin-like (T-L) activities of the 20S proteasome are measured with a fluorogenic substrate assay method using succinyl-Leu-Leu-Val-Tyr-AMC, Z-Leu-Leu-Glu-AMC and Boc-Leu-Arg-Arg-AMC, respectively, as the substrates in an assay buffer. The free fluorophore 7-Amino-4-methylcoumarin (AMC) after cleavage from the substrates is quantified using a fluorometer and activity of CT-L, PGPH and T-L of 20S proteasome is determined.
(§2) Inhibition of the chymotrypsin-like (CT-L), peptidylglutamyl peptide hydrolyzing activity (PGPH), and trypsin-like (T-L) activities of the 20S proteasome in enzymatic assays were determined using succinyl-Leu-Leu-Val-Tyr-AMC (10 μmol/L), Z-Leu-Leu-Glu-AMC (10 μmol/L) and Boc-Leu-Arg-Arg-AMC (50 μmol/L), respectively, as the substrates with purified human 20S proteasome at 2, 4 and 8 nmol/L, respectively, in the assay buffer containing 25 mM HEPES (pH7.5), 0.5 mM EDTA, 0.002% sodium dodecyl sulfate (SDS) and 0.05% NP-40. Stock solutions of the 20S proteasome inhibitors disclosed herein were prepared in dimethyl sulfoxide (DMSO) and the final DMSO concentration in the assay mixture was 1%. Reaction was conducted at room temperature for one hour. Proteasome activity was measured based on detection of the fluorophore 7-Amino-4-methylcoumarin (AMC) after cleavage from the substrates with a plate-based spectrofluorometer.

For data set [2], the target named is 20S Immunoproteasome peptidylglutamyl peptide hydrolyzing (PGPH) activity (Homo sapiens (Human), UniProt P28065+P40306). Briefly: 20S immunoproteasome PGPH activity inhibition, fluorogenic substrate Z-Leu-Leu-Glu-AMC. The class given is biochemical. Particulars: purified human 20S proteasome, room temperature, one hour. On the procedure:
as §1, §2

For data set [3], the target named is Constitutive 20S proteasome peptidylglutamyl peptide hydrolyzing (PGPH) activity (Homo sapiens (Human), UniProt P28072+Q99436). Briefly: Constitutive 20S proteasome PGPH activity inhibition, fluorogenic substrate Z-Leu-Leu-Glu-AMC. The class given is biochemical. Particulars: purified human 20S proteasome, room temperature, one hour. Here is the method: as §1, §2

The target in data set [4] is 20S Immunoproteasome chymotrypsin-like (CT-L) activity (Homo sapiens (Human), UniProt P20618+P28062). Briefly: 20S immunoproteasome CT-L activity inhibition, fluorogenic substrate succinyl-Leu-Leu-Val-Tyr-AMC. Particulars: purified human 20S proteasome, room temperature, one hour. The class given is biochemical. On the procedure: as §1, §2
Data set [5] can be described thus: Aqueous solubility of the compounds. It counts as physicochemical. Particulars: 50 mM citrate buffer, pH 4, aqueous buffer, thermodynamic from solid, 50 mM citrate pH4.0, 25° C. On the procedure:
To determine the solubility of the compounds, 1-5 mg of a compound was weighed into a vial. 1 mL of aqueous buffer (50 mM citrate at pH4.0) was added. The vial was shaken at 25° C. for 24 hours and then centrifuged for 10 min at 10000 rpm. The supernatant was filtered through a 0.45 μm membrane filter and analyzed for the concentration of the compound. In certain embodiments, the aqueous solubility of the compounds is described herein in Table 1.

The target of data set [6] is Constitutive 20S proteasome trypsin-like (T-L) activity (Homo sapiens (Human), UniProt P49720+Q99436). Briefly: Constitutive 20S proteasome T-L activity inhibition, fluorogenic substrate Boc-Leu-Arg-Arg-AMC. It counts as biochemical. Particulars: for IC50: purified human 20S proteasome, room temperature, one hour, read-out: Proteasome inhibition IC50 (nM) Constitutive 20S proteasome T-L. Here is the method:
as §1, §2

For data set [7], the target named is 20S Immunoproteasome trypsin-like (T-L) activity (Homo sapiens (Human), UniProt P40306+P49720). Put plainly: 20S immunoproteasome T-L activity inhibition, fluorogenic substrate Boc-Leu-Arg-Arg-AMC. The class given is biochemical. To be noted: purified human 20S proteasome, room temperature, one hour. Here is the method:
as §1, §2

Broadly, the IC50 is the concentration that inhibits the measured activity by half. One may read the solubility as the dissolved amount per volume that the medium holds. Lower therefore signals a poorly soluble substance.

`CC(C)C[C@H](NC(=O)[C@H](CCc1ccccc1)NC(=O)c1cc(CN2CCOCC2)on1)C(=O)N[C@@H](Cc1ccccc1)C(=O)[C@@]1(C)CO1` [CX13-105]: the pIC50 in data set [1] is over 8.30. The half-maximal inhibitory concentration (IC50) is 0.97 nM in data set [1]; over 20000 nM in data set [2]; over 20000 nM in data set [3]; 1.34 nM in data set [4]; over 20000 nM in data set [6]; over 20000 nM in data set [7]. Also, the solubility at 24 h in data set [5] is 21 µg/mL (≈ 31.2 µM).
On to `COC[C@H](NC(=O)c1cc(C)on1)C(=O)N[C@@H](Cc1ccncc1)C(=O)N[C@@H](CC(C)C)C(=O)[C@@]1(C)CO1` [CX13-501], for which the IC50 was 113 nM in data set [1]; over 20000 nM in data set [2]; over 20000 nM in data set [3]; 392 nM in data set [4]; over 20000 nM in data set [6]; over 20000 nM in data set [7]. For the same compound, the solubility at 24 h in data set [5] came to 4480 µg/mL (≈ 8460 µM).
Take `COC[C@H](NC(=O)c1cc(CN2CCOCC2)on1)C(=O)N[C@@H](Cc1ccncc1)C(=O)N[C@@H](CC(C)C)C(=O)[C@@]1(C)CO1` [CX13-500]: the IC50 is 121 nM in data set [1]; over 20000 nM in data set [2]; over 20000 nM in data set [3]; 170 nM in data set [4]; over 20000 nM in data set [6]; over 20000 nM in data set [7]. The solubility at 24 h in data set [5] is over 2350 µg/mL.
As for `Cc1cc(C(=O)N[C@@H](CCc2ccccc2)C(=O)N[C@@H](Cc2ccncc2)C(=O)N[C@@H](CC(C)C)C(=O)[C@@]2(C)CO2)no1` [CX13-135], the pIC50 in data set [1] is over 8.00. In addition, the concentration for half-maximal inhibition (IC50) in data set [1] was 6.56 nM; in data set [2], over 20000 nM; in data set [3] it was over 20000 nM; in data set [4], 28.1 nM; in data set [6] it was 13400 nM; in data set [7] it was 6450 nM. The solubility at 24 h in data set [5] amounted to 1160 µg/mL (≈ 1970 µM).
`CC(=O)N[C@@H](CCc1ccccc1)C(=O)N[C@@H](Cc1ccncc1)C(=O)N[C@@H](CC(C)C)C(=O)[C@@]1(C)CO1` [CX13-130] showed a pIC50 in data set [1] of over 7.00. Besides, the concentration for half-maximal inhibition (IC50) is 62.4 nM in data set [1]; over 20000 nM in data set [2]; over 20000 nM in data set [3]; 248 nM in data set [4]; 3600 nM in data set [6]; 1650 nM in data set [7]. The compound also returned a solubility at 24 h in data set [5] of 1360 µg/mL (≈ 2600 µM).
Compound `C[C@]1(C(=O)[C@H](Cc2ccccc2)NC(=O)[C@H](Cc2cscn2)NC(=O)[C@H](CCc2ccccc2)NC(=O)c2cc(CN3CCOCC3)on2)CO1` [CX13-605] showed a pIC50 in data set [1] of over 8.00. Besides, the half-inhibitory concentration (IC50) in data set [1] was 12.2 nM; in data set [2], over 20000 nM; in data set [3] it was over 20000 nM; in data set [4] it was 6.81 nM; in data set [6] it was over 20000 nM; in data set [7], over 20000 nM. For the same compound, the solubility at 24 h in data set [5] stood at 120 µg/mL (≈ 168 µM).
Consider `CC(C)C[C@H](NC(=O)[C@H](Cc1ccncc1)NC(=O)[C@H](CCc1ccccc1)NC(=O)Cc1ccc(CN2CCOCC2)cc1)C(=O)[C@@]1(C)CO1` [CX13-133], for which the pIC50 is over 8.30 in data set [1] and over 6.30 in data set [6] (form of 20S proteasome not stated, 'below about', read-out: concentration showing inhibition of T-L activity of the 20S proteasome). Further, the half-inhibitory concentration (IC50) in data set [1] was 3.58 nM; in data set [2] it was over 20000 nM; in data set [3], over 20000 nM; in data set [4], 4.65 nM; in data set [6] it was 443 nM; in data set [7], 455 nM. Further, in data set [5], the solubility at 24 h was found to be 6360 µg/mL (≈ 9110 µM).
